Reference: patent US5637501A, “Apparatus for automatically testing the antibiotic sensitivity of a paraffinophilic microorganism” (Infectech, Inc., priority 1995, dated 1997)
In brackets after ≈: the same amount, converted by molar mass. Read-outs that look alike come from different tables or passages of the source.

System: MAI
Test: antibiotic sensitivity (MIC) of MAI strains, paraffin slide culture and microliter assays
Format: cell-based, Mycobacterium avium-intracellulare
Design: key: NG: No Growth
From the text: The present invention has met the above-described need. In one embodiment, it provides a method of automatically testing the sensitivity of a paraffinophilic microorganism to different antimicrobial agents, such as antibiotics, and concentrations thereof, by providing a plurality of receptacles, each containing an amount of liquid medium, an antimicrobial agent to be tested and the microorganism to be tested. In each of the receptacles is placed a slide containing a paraffin source. The receptacles are then incubated, after which a light scatter sensing means automatically and sequentially monitors the extent of microorganism growth on the slides. The extent of colony growth is employed to determine which antimicrobial agent in which concentration is effective to resist growth of the microorganism. A preferred light scatter sensing means is a nephelometer.
Referring specifically to FIG. 1, there is shown a preferred embodiment of the present invention usable in a method of automatically testing the sensitivity of a pure culture of a microorganism to different antimicrobial agents and concentrations thereof. In this embodiment, a microorganism, which may have been previously speciated as by the technique taught in U.S. Pat. No. 5,153, 119, has been introduced into a plurality of receptacles, each containing an amount of liquid medium and antimicrobial agent to be tested. A paraffin slide is introduced into each of the receptacles which are subsequently incubated. The receptacles 2-22 (even numbers only) are fixedly secured to an elongated, substantially rigid movable carrier member 26, such that the receptacles 2-22 will be translated therewith in the direction shown by the arrow A. The carrier member 26 may be made of any suitable material, such as aluminum, steel, stainless steel, or resinous plastic, for example. The receptacles 2-22, respectively, contain slides 32-52 (even numbers only). The slides 32-52 are fixedly secured, respectively, within receptacles 2-22 which may test tubes. The slides 32-52 are generally oriented so as to have their elongated direction aligned with the direction of travel of the carrier 26. As the carrier moves in the direction of arrow A, the slides 2-22 will sequentially be positioned in operative relationship to the light scatter sensing means which consists of light source 60, which directs a light beam toward light detector 62. In the preferred embodiment, a beam of visible light from light source 60 will impinge upon slide 32, with the growth of the microorganism thereon producing a corresponding scatter of light which is received by the light receiving sensor 62 and converts the received light into an appropriate output electrical signal which will be delivered to computer means 64. The computer means 64, in turn, provides output to output means 66, which may conveniently be a display, such as a cathode ray tube or a hard copy printer, for example. The degree of light scatter will be related to the extent of microorganism growth with light scatter increasing as growth on the slide increases.
The computer means 64 may be a general purpose digital microprocessor. It may be programmed in a manner readily known to those skilled in the art to sequentially compare the light scatter value of each slide 32-52 with that of a control slide and to provide an output to output means 66, such as a visual screen display or hard copy, with or without prior enhancement, which indicates the difference between the control slide and the specific slides containing the same pure culture of a paraffinophilic microorganism, but exposed to different concentrations of different or the same antimicrobial agents, such an antibiotics. In this manner, there is provided the minimal concentration level of a specific antimicrobial agent that must be used to control growth of the microorganism. Also, the minimum bactericidal concentration may be determined. […]

[1] = Table 2, Exp. Series I, strain 7

MIC (Mycobacterium avium-intracellulare, Table 2, Exp. Series I, strain 1, read-out: MIC): > 16 µg/mL | MIC (Mycobacterium avium-intracellulare, Table 2, Exp. Series I, strain 2, read-out: MIC): > 16 µg/mL | MIC (Mycobacterium avium-intracellulare, Table 2, Exp. Series I, strain 3, read-out: MIC): 6.4 µg/mL (≈ 10.9 µM) | MIC (Mycobacterium avium-intracellulare, Table 2, Exp. Series I, strain 4, read-out: MIC): 3.2 µg/mL (≈ 5.46 µM) | MIC (Mycobacterium avium-intracellulare, Table 2, Exp. Series I, strain 5, read-out: MIC): 6.4 µg/mL (≈ 10.9 µM) | MIC (Mycobacterium avium-intracellulare, Table 2, Exp. Series I, strain 6, read-out: MIC): 12 µg/mL (≈ 20.5 µM) | MIC (Mycobacterium avium-intracellulare, Table 2, Exp. Series I, strain 8, read-out: MIC): > 16 µg/mL | MIC (Mycobacterium avium-intracellulare, Table 2, Exp. Series I, strain 9, read-out: MIC): 12 µg/mL (≈ 20.5 µM) | MIC (Mycobacterium avium-intracellulare, Table 2, Exp. Series I, strain 10, read-out: MIC): 6.4 µg/mL (≈ 10.9 µM) | MIC (Mycobacterium avium-intracellulare, Table 2, Exp. Series I, strain 11, read-out: MIC): 7.3 µg/mL (≈ 12.5 µM) | MIC (Mycobacterium avium-intracellulare, Table 2, Exp. Series I, strain 12, read-out: MIC): 3.2 µg/mL (≈ 5.46 µM) | MIC (Mycobacterium avium-intracellulare, Table 2, Exp. Series I, strain 13, read-out: MIC): 3.2 µg/mL (≈ 5.46 µM) | MIC (Mycobacterium avium-intracellulare, Table 2, Exp. Series I, strain 14, read-out: MIC): 9.6 µg/mL (≈ 16.4 µM) | MIC (Mycobacterium avium-intracellulare, Table 2, Exp. Series I, strain 15, read-out: MIC): 6.4 µg/mL (≈ 10.9 µM) | MIC (Mycobacterium avium-intracellulare, Table 2, Exp. Series I, strain 16, read-out: MIC): 6.4 µg/mL (≈ 10.9 µM) | MIC (Mycobacterium avium-intracellulare, Table 2, Exp. Series II, strain 1, read-out: MIC): > 16 µg/mL | MIC (Mycobacterium avium-intracellulare, Table 2, Exp. Series II, strain 2, read-out: MIC): 12 µg/mL (≈ 20.5 µM) | MIC (Mycobacterium avium-intracellulare, Table 2, Exp. Series II, strain 3, read-out: MIC): 6.4 µg/mL (≈ 10.9 µM) | MIC (Mycobacterium avium-intracellulare, Table 2, Exp. Series II, strain 4, read-out: MIC): 6.4 µg/mL (≈ 10.9 µM) | MIC (Mycobacterium avium-intracellulare, Table 2, Exp. Series II, strain 5, read-out: MIC): 3.2 µg/mL (≈ 5.46 µM) | MIC (Mycobacterium avium-intracellulare, Table 2, Exp. Series II, strain 6, read-out: MIC): 3.2 µg/mL (≈ 5.46 µM) | MIC (Mycobacterium avium-intracellulare, Table 2, Exp. Series II, strain 7, read-out: MIC): 6.4 µg/mL (≈ 10.9 µM) | MIC (Mycobacterium avium-intracellulare, Table 2, Exp. Series II, strain 8, read-out: MIC): > 16 µg/mL | MIC (Mycobacterium avium-intracellulare, Table 2, Exp. Series II, strain 9, read-out: MIC): 3.2 µg/mL (≈ 5.46 µM) | MIC (Mycobacterium avium-intracellulare, Table 2, Exp. Series II, strain 10, read-out: MIC): 6.4 µg/mL (≈ 10.9 µM) | MIC (Mycobacterium avium-intracellulare, Table 2, Exp. Series II, strain 11, read-out: MIC): 9.6 µg/mL (≈ 16.4 µM) | MIC (Mycobacterium avium-intracellulare, Table 2, Exp. Series II, strain 12, read-out: MIC): 6.4 µg/mL (≈ 10.9 µM) | MIC (Mycobacterium avium-intracellulare, Table 2, Exp. Series II, strain 13, read-out: MIC): 9.6 µg/mL (≈ 16.4 µM) | MIC (Mycobacterium avium-intracellulare, Table 2, Exp. Series II, strain 14, read-out: MIC): > 16 µg/mL | MIC (Mycobacterium avium-intracellulare, Table 2, Exp. Series II, strain 15, read-out: MIC): 6.4 µg/mL (≈ 10.9 µM) | MIC (Mycobacterium avium-intracellulare, Table 2, Exp. Series II, strain 16, read-out: MIC): 9.6 µg/mL (≈ 16.4 µM) | MIC (Mycobacterium avium-intracellulare, Table 2, Exp. Series III, strain 1, read-out: MIC): 3.2 µg/mL (≈ 5.46 µM) | MIC (Mycobacterium avium-intracellulare, Table 2, Exp. Series III, strain 2, read-out: MIC): 3.2 µg/mL (≈ 5.46 µM) | MIC (Mycobacterium avium-intracellulare, Table 2, Exp. Series III, strain 3, read-out: MIC): 6.4 µg/mL (≈ 10.9 µM) | MIC (Mycobacterium avium-intracellulare, Table 2, Exp. Series III, strain 4, read-out: MIC): 3.2 µg/mL (≈ 5.46 µM) | MIC (Mycobacterium avium-intracellulare, Table 2, Exp. Series III, strain 5, read-out: MIC): 3.2 µg/mL (≈ 5.46 µM) | MIC (Mycobacterium avium-intracellulare, Table 2, Exp. Series III, strain 6, read-out: MIC): 3.2 µg/mL (≈ 5.46 µM) | MIC (Mycobacterium avium-intracellulare, Table 2, Exp. Series III, strain 7, read-out: MIC): 6.4 µg/mL (≈ 10.9 µM) | MIC (Mycobacterium avium-intracellulare, Table 2, Exp. Series III, strain 8, read-out: MIC): 3.2 µg/mL (≈ 5.46 µM) | MIC (Mycobacterium avium-intracellulare, Table 2, Exp. Series III, strain 9, read-out: MIC): 3.2 µg/mL (≈ 5.46 µM) | MIC (Mycobacterium avium-intracellulare, Table 2, Exp. Series III, strain 10, read-out: MIC): 3.2 µg/mL (≈ 5.46 µM) | MIC (Mycobacterium avium-intracellulare, Table 2, Exp. Series III, strain 11, read-out: MIC): 6.4 µg/mL (≈ 10.9 µM) | MIC (Mycobacterium avium-intracellulare, Table 2, Exp. Series III, strain 12, read-out: MIC): 6.4 µg/mL (≈ 10.9 µM) | MIC (Mycobacterium avium-intracellulare, Table 2, Exp. Series III, strain 13, read-out: MIC): 6.4 µg/mL (≈ 10.9 µM) | MIC (Mycobacterium avium-intracellulare, Table 2, Exp. Series III, strain 14, read-out: MIC): 6.4 µg/mL (≈ 10.9 µM) | MIC (Mycobacterium avium-intracellulare, Table 2, Exp. Series III, strain 15, read-out: MIC): 3.2 µg/mL (≈ 5.46 µM) | MIC (Mycobacterium avium-intracellulare, Table 2, Exp. Series III, strain 16, read-out: MIC): 3.2 µg/mL (≈ 5.46 µM) | MIC [1]: NG
SMILES: NCC[C@H](O)C(=O)N[C@@H]1C[C@H](N)[C@@H](O[C@H]2O[C@H](CN)[C@@H](O)[C@H](O)[C@H]2O)[C@H](O)[C@H]1O[C@H]1O[C@H](CO)[C@@H](O)[C@H](N)[C@H]1O [amikacin]
Days to Confluency (Table 2, Exp. Series I, strain 1): 7 days | Days to Confluency (Table 2, Exp. Series I, strain 2): 7 days | Days to Confluency (Table 2, Exp. Series I, strain 3): 8 days | Days to Confluency (Table 2, Exp. Series I, strain 4): 8 days | Days to Confluency (Table 2, Exp. Series I, strain 5): 7 days | Days to Confluency (Table 2, Exp. Series I, strain 6): 7 days | Days to Confluency [1]: NG | Days to Confluency (Table 2, Exp. Series I, strain 8): 7 days | Days to Confluency (Table 2, Exp. Series I, strain 9): 8 days | Days to Confluency (Table 2, Exp. Series I, strain 10): 6 days | Days to Confluency (Table 2, Exp. Series I, strain 11): 5 days | Days to Confluency (Table 2, Exp. Series I, strain 12): 5 days | Days to Confluency (Table 2, Exp. Series I, strain 13): 6 days | Days to Confluency (Table 2, Exp. Series I, strain 14): 5 days | Days to Confluency (Table 2, Exp. Series I, strain 15): 5 days | Days to Confluency (Table 2, Exp. Series I, strain 16): 5 days | Days to Confluency (Table 2, Exp. Series II, strain 1): 7 days | Days to Confluency (Table 2, Exp. Series II, strain 2): 7 days | Days to Confluency (Table 2, Exp. Series II, strain 3): 9 days | Days to Confluency (Table 2, Exp. Series II, strain 4): 5 days | Days to Confluency (Table 2, Exp. Series II, strain 5): 5 days | Days to Confluency (Table 2, Exp. Series II, strain 6): 5 days | Days to Confluency (Table 2, Exp. Series II, strain 7): 5 days | Days to Confluency (Table 2, Exp. Series II, strain 8): 7 days | Days to Confluency (Table 2, Exp. Series II, strain 9): 6 days | Days to Confluency (Table 2, Exp. Series II, strain 10): 6 days | Days to Confluency (Table 2, Exp. Series II, strain 11): 6 days | Days to Confluency (Table 2, Exp. Series II, strain 12): 6 days | Days to Confluency (Table 2, Exp. Series II, strain 13): 6 days | Days to Confluency (Table 2, Exp. Series II, strain 14): 6 days | Days to Confluency (Table 2, Exp. Series II, strain 15): 6 days | Days to Confluency (Table 2, Exp. Series II, strain 16): 6 days | Days to Confluency (Table 2, Exp. Series III, strain 1): 5 days | Days to Confluency (Table 2, Exp. Series III, strain 2): 5 days | Days to Confluency (Table 2, Exp. Series III, strain 3): 12 days | Days to Confluency (Table 2, Exp. Series III, strain 4): 6 days | Days to Confluency (Table 2, Exp. Series III, strain 5): 5 days | Days to Confluency (Table 2, Exp. Series III, strain 6): 5 days | Days to Confluency (Table 2, Exp. Series III, strain 7): 5 days | Days to Confluency (Table 2, Exp. Series III, strain 8): 5 days | Days to Confluency (Table 2, Exp. Series III, strain 9): 7 days | Days to Confluency (Table 2, Exp. Series III, strain 10): 5 days | Days to Confluency (Table 2, Exp. Series III, strain 11): 5 days | Days to Confluency (Table 2, Exp. Series III, strain 12): 5 days | Days to Confluency (Table 2, Exp. Series III, strain 13): 6 days | Days to Confluency (Table 2, Exp. Series III, strain 14): 5 days | Days to Confluency (Table 2, Exp. Series III, strain 15): 5 days | Days to Confluency (Table 2, Exp. Series III, strain 16): 5 days
